Where two headings read alike, the source gives them in different places.
Experiments:
[1] = system: HCV genotype 1a replicon; test: HCV replicon assay, GT 1a (luciferase readout); type: cell-based; conditions: Hepatitis C virus; GT 1a replicon; n > 3
Experimental: (§1) Biological activity of the compounds of the invention was determined using an HCV replicon assay. The 1b_Huh-Luc/Neo-ET cell line persistently expressing a bi-cistronic genotype 1b replicon in Huh 7 cells was obtained from ReBLikon GMBH. This cell line was used to test compound inhibition using luciferase enzyme activity readout as a measurement of compound inhibition of replicon levels.
(§2) On Day 1 (the day after plating), each compound was added in triplicate to the cells. Plates incubated for 72 hrs prior to running the luciferase assay. Enzyme activity was measured using a Bright-Glo Kit (cat. number E2620) manufactured by Promega Corporation. The following equation was used to generate a percent control value for each compound.
(§3) % Control=(Average Compound Value/Average Control)*100
(§4) The EC50 value was determined using GraphPad Prism and the following equation:
(§5) Y=Bottom+(Top−Bottom)/(1+10̂((LogIC50−X)*HillSlope))
(§6) EC50 values of compounds are repeated several times in the replicon assay.
(§7) The disclosed compounds can inhibit multiple genotypes of HCV including, but not limited to 1a, 1b, 2a, 3a, 4a and 5a. The EC50s are measured in the corresponding replicon assays that are similar to HCV 1b replicon assay as described above.

[2] = system: HCV genotype 3a replicon; test: HCV replicon assay, GT 3a (luciferase readout); type: cell-based; conditions: Hepatitis C virus; GT 3a replicon; n > 3
Experimental: as §1, §2, §3, §4, §5, §6, §7

[3] = system: HCV genotype 2a replicon; test: HCV replicon assay, GT 2a (luciferase readout); type: cell-based; conditions: Hepatitis C virus; GT 2a replicon; n > 3
Experimental: as §1, §2, §3, §4, §5, §6, §7

[4] = system: HCV genotype 4a replicon; test: HCV replicon assay, GT 4a (luciferase readout); type: cell-based; conditions: Hepatitis C virus; GT 4a replicon; n > 3
Experimental: as §1, §2, §3, §4, §5, §6, §7

[5] = system: bi-cistronic genotype 1b replicon in Huh 7 cells (1b_Huh-Luc/Neo-ET cell line); test: HCV replicon assay, GT 1b (luciferase readout); type: cell-based; conditions: Hepatitis C virus, GT 1b replicon, n > 3
Experimental: as §1, §2, §3, §4, §5, §6

[6] = system: HCV genotype 5a replicon; test: HCV replicon assay, GT 5a (luciferase readout); type: cell-based; conditions: Hepatitis C virus; GT 5a replicon; n > 3
Experimental: as §1, §2, §3, §4, §5, §6, §7

[7] = Moisture sorption profile (DVS) of Compound II Form I and amorphous Compound II; type: physicochemical; conditions: DVS at 25° C.
Experimental: The moisture sorption profile was generated of the sample as well as of a sample of amorphous Compound II at 25° C. using a DVS Moisture Balance Flow System (Model Advantage) with the following conditions: sample size approximately 10 mg, drying 25° C. for 60 minutes, adsorption range 0% to 95% RH, desorption range 95% to 0% RH, and step interval 5%. The equilibrium criterion was <0.01% weight change in 5 minutes for a maximum of 120 minutes.

[8] = Solubility of Form I and free base compound 4-3 (visual and HPLC assay of filtrate); type: physicochemical; conditions: for pH (Filtrated): filtrate of solubility sample; for HPLC Solubility / Visual Solubility (observation in words) / solubility at 24 h: target conc. 2.0 mg/mL; for HPLC Solubility / solubility at 24 h: 24 hours ambient, 0.45-μm filtrate; for solubility at 24 h: thermodynamic from solid, read-out: HPLC Solubility
Experimental: Solubility of Form I as well as the free base compound 4-3 was tested. Solubility was measured by placing a small quantity of the compound to be analyzed in a glass vial, capping and rotating the vial overnight at ambient conditions (24 hours). Target concentration was 2.0 mg/mL. The samples were filtrated with 0.45-μm filters. The subsequent filtrate was collected for HPLC assay. HPLC conditions are shown in Table 10 in Appendix A. Solubility for Form I is shown in Table 11 and for the free base compound 4-3 is shown in Table 12 in Appendix A. [table]

**Q.** With `CC[C@H](C)[C@H](NC(=O)OC)C(=O)N1CCC[C@H]1c1nc2ccc(-c3ccc4cc(-c5cnc([C@@H]6CCCN6C(=O)[C@@H](NC(=O)OC)[C@@H](C)OC)[nH]5)ccc4c3)cc2[nH]1` [Compound II] as the compound, how does the EC50 [1] read?
**A.** Its EC50 is 0.07 nM.

**Q.** What about the EC50 [2] of the same compound?
**A.** Its EC50 is 0.4 nM.

**Q.** What about the EC50 [3] of the same compound?
**A.** The EC50 was 0.11 nM.

**Q.** And the EC50 [4]?
**A.** Its EC50 is 0.04 nM.

**Q.** What about the EC50 [5] of the same compound?
**A.** The EC50 was 0.01 nM.

**Q.** What about the EC50 [6] of the same compound?
**A.** Its EC50 is 0.04 nM.

**Q.** With `COC(=O)N[C@H](C(=O)N1CCC[C@H]1c1ncc(-c2ccc3cc(-c4ccc5nc([C@@H]6CCCN6C(=O)[C@@H](NC(=O)OC)C(C)C)[nH]c5c4)ccc3c2)[nH]1)C(C)C` [Compound I] as the compound, how does the EC50 [1] read?
**A.** Its EC50 is 0.135 nM.

**Q.** What about the EC50 [2] of the same compound?
**A.** The EC50 was 1.26 nM.

**Q.** And the EC50 [3]?
**A.** The EC50 was 0.139 nM.

**Q.** What about the EC50 [4] of the same compound?
**A.** The EC50 was 0.052 nM.

**Q.** And the EC50 [5]?
**A.** Its EC50 is 0.016 nM.

**Q.** And the EC50 [6]?
**A.** Its EC50 is 0.039 nM.

**Q.** For `CC[C@H](C)[C@H](NC(=O)OC)C(=O)N1CCC[C@H]1c1nc2ccc(-c3ccc4cc(-c5cnc([C@@H]6CCCN6C(=O)[C@@H](NC(=O)OC)[C@@H](C)OC)[nH]5)ccc4c3)cc2[nH]1` [amorphous Compound II], which “weight percentage change (water uptake) from 0-75% RH” value [7] is on record?
**A.** Its value is 13.57%.

**Q.** Which “pH (Filtrated)” value ([8]; 0.1N HCl) does the source give for `CC[C@H](C)[C@H](NC(=O)OC)C(=O)N1CCC[C@H]1c1nc2ccc(-c3ccc4cc(-c5cnc([C@@H]6CCCN6C(=O)[C@@H](NC(=O)OC)[C@@H](C)OC)[nH]5)ccc4c3)cc2[nH]1` [compound 4-3] here?
**A.** The value was 1.09.

**Q.** What about the “HPLC Solubility” value ([8]; 0.1N HCl) of the same compound?
**A.** The value was 2066 µg/mL.

**Q.** What about the “pH (Filtrated)” value ([8]; Water) of the same compound?
**A.** Its value is 8.83.

**Q.** What about the “Visual Solubility (observation in words)” value ([8]; Water) of the same compound?
**A.** The value was “Turbid +”.

**Q.** What about the “HPLC Solubility” value ([8]; Water) of the same compound?
**A.** Its value is under 1 µg/mL.

**Q.** And the “pH (Filtrated)” value ([8]; pH 2 medium)?
**A.** The value was 2.17.

**Q.** And the “HPLC Solubility” value ([8]; pH 2 medium)?
**A.** The value was 2056 µg/mL.

**Q.** What about the “pH (Filtrated)” value ([8]; pH 3 medium) of the same compound?
**A.** The value was 3.59.

**Q.** What about the “Visual Solubility (observation in words)” value ([8]; pH 3 medium) of the same compound?
**A.** The value was “A few”.

**Q.** And the “HPLC Solubility” value ([8]; pH 3 medium)?
**A.** The value was 1763 µg/mL.

**Q.** What about the “pH (Filtrated)” value ([8]; pH 4 medium) of the same compound?
**A.** The value was 4.72.

**Q.** What about the “Visual Solubility (observation in words)” value ([8]; pH 4 medium) of the same compound?
**A.** Its value is “Turbid +”.

**Q.** What about the “HPLC Solubility” value ([8]; pH 4 medium) of the same compound?
**A.** Its value is 11 µg/mL.

**Q.** What about the “pH (Filtrated)” value ([8]; pH 5 medium) of the same compound?
**A.** The value was 5.27.

**Q.** And the “HPLC Solubility” value ([8]; pH 5 medium)?
**A.** The value was 1 µg/mL.

**Q.** And the solubility at 24 h ([8]; pH 6 medium, pH 6, aqueous buffer, pH 6 medium)?
**A.** Its solubility at 24 h is under 1 µg/mL.

**Q.** And the “pH (Filtrated)” value ([8]; pH 6 medium)?
**A.** Its value is 6.04.

**Q.** What about the “Visual Solubility (observation in words)” value ([8]; pH 6 medium) of the same compound?
**A.** The value was “Turbid +”.

**Q.** And the solubility at 24 h ([8]; pH 7 medium, pH 7, aqueous buffer, pH 7 medium)?
**A.** Its solubility at 24 h is under 1 µg/mL.

**Q.** And the “pH (Filtrated)” value ([8]; pH 7 medium)?
**A.** The value was 7.00.

**Q.** And the “Visual Solubility (observation in words)” value ([8]; pH 7 medium)?
**A.** The value was “Turbid +”.

**Q.** And the solubility at 24 h ([8]; pH 8 medium, pH 8, aqueous buffer, pH 8 medium)?
**A.** The solubility at 24 h was under 1 µg/mL.

**Q.** And the “pH (Filtrated)” value ([8]; pH 8 medium)?
**A.** The value was 7.91.

**Q.** And the “Visual Solubility (observation in words)” value ([8]; pH 8 medium)?
**A.** The value was “Turbid +”.
